Assay results published in BindingDB's records for doi:10.1021/jm950639r (Eli Lilly, 1996).

Experiments:
Test in all cases: HIV-1 RT Assay
[1] = target: T1, Gag-Pol polyprotein [588-1127,L687I]/[588-1147,L687I] (Human immunodeficiency virus 1, UniProt P04585, L687I)
T1 construct: 588-1127; 588-1147

[2] = target: T2, Gag-Pol polyprotein [588-1027]/[588-1147] (Human immunodeficiency virus 1, UniProt P04585)
T2 construct: 588-1027; 588-1147

[3] = target: T3, Gag-Pol polyprotein [588-1127,Y768C]/[588-1147,Y768C] (Human immunodeficiency virus 1, UniProt P04585, Y768C)
T3 construct: 588-1127; 588-1147

| SMILES | IC50 [1] [nM] | IC50 [3] [nM] | other results |
| --- | --- | --- | --- |
| S=C(NCCc1c[nH]c2ccccc12)Nc1ccc(Br)cn1 [1-(5-bromopyridin-2-yl)-3-[2-(1H-indol-3-yl)ethyl]thiourea] | > 2500 | – | – |
| CCOc1ccc(OCC)c(CCNC(=S)Nc2ccc(Br)cn2)c1 [1-(5-bromopyridin-2-yl)-3-[2-(2,5-diethoxyphenyl)ethyl]thiourea] | – | – | IC50 [2]: 18 nM |
| Cc1cc2nn(CCNC(=S)Nc3ccc(Br)cn3)nc2cc1C [1-(5-bromopyridin-2-yl)-3-[2-(5,6-dimethyl-2H-1,2,3-benzotriazol-2-yl)ethyl]thiourea] | > 2500 | 100 | – |
| COc1ccc2[nH]cc(CC/N=C(\S)Nc3ccc(Br)cn3)c2c1 [1-(5-bromopyridin-2-yl)-3-[2-(5-methoxy-1H-indol-3-yl)ethyl]thiourea] | > 2500 | – | – |
| COCc1ccc(F)c(CCNC(=S)Nc2ccc(Br)cn2)c1F [1-(5-bromopyridin-2-yl)-3-{2-[2,6-difluoro-3-(methoxymethyl)phenyl]ethyl}thiourea] | – | – | IC50 ([3]; pH 7.8, 37 °C): 100 nM |
| CCOc1ccc(F)c(CCNC(=S)Nc2ncc(C(F)(F)F)s2)c1Cl [1-[2-(2-chloro-3-ethoxy-6-fluorophenyl)ethyl]-3-[5-(trifluoromethyl)-1,3-thiazol-2-yl]thiourea] | 7000 | 7000 | IC50 [2]: 47 nM |
| CNC(=O)c1ccc(F)c(CC/N=C(\S)Nc2ccc(Br)cn2)c1F [3-(2-{[(5-bromopyridin-2-yl)carbamothioyl]amino}ethyl)-2,4-difluoro-N-methylbenzamide] | – | – | IC50 ([3]; pH 7.8, 37 °C): > 2000 nM; IC50 ([1]; pH 7.8, 37 °C): > 2000 nM |
| S=C(NCCn1nc2ccccc2n1)Nc1ccc(Br)cn1 [3-[2-(2H-1,2,3-benzotriazol-2-yl)ethyl]-1-(5-bromopyridin-2-yl)thiourea] | – | 100 | – |
| CC(C)=CCN1Cc2cc(Cl)cc3[nH]c(=S)n(c23)C[C@@H]1C [(11S)-6-chloro-11-methyl-10-(3-methylbut-2-en-1-yl)-1,3,10-triazatricyclo[6.4.1.0^{4,13}]trideca-4,6,8(13)-triene-2-thione] | 32200 | 13000 | – |
| S=C(NCCc1nc2ccccc2[nH]1)Nc1ccc(Br)cn1 [N-[2-(2-Benzimidazolyl)ethyl]-N-[2-(5-bromopyridyl)]-thiourea] | > 2500 | 1860 | IC50 [2]: 21 nM |
| CC(=O)NCc1ccc(F)c(CCNC(=S)Nc2ccc(Br)cn2)c1F [N-[2-(3-(Acetamidomethyl)-2,6-difluorophenethyl)]-N-[2-(5-bromopyridyl)]thiourea] | – | – | IC50 ([3]; pH 7.8, 37 °C): > 2000 nM; IC50 ([1]; pH 7.8, 37 °C): > 2000 nM |
